Experimental data taken from patent publication US20240268421A1, “FOOD COLOURING AGENTS” (v2food Pdy Ltd, priority 2020, published 2024).

Assays:
[1] = system: Caco-2/HT29-MTX-E12 transwell model; assay: Ferritin formation in intestinal barrier model (bioavailability of iron); assay type: cell-based, Human
Protocol: Human Caco-2(enterocytes) and HT29-MTX-E12 (goblet) cells grown on a semi-permeable membrane comprise the intestinal barrier model. The co-cultures were grown on transwells as described below: • Caco-2 cells and HT29-MTX-E12 cells flasks were passaged when ˜90% confluent. • Cells were counted using a haemocytometer (or Coulter counter) to determine cell number/mL. • 0.6 mL growth media (no cells) was added to basolateral chamber of transwells. • 0.2 mL Caco-2/HT29-MTX-E12 cell solution was carefully added into apical chamber to achieve 3.6×104 Caco-2 and 4×10^3 HT29-MTX cells. • Co-cultures were grown on transwells for 21 days with media changed every 2-3 days. • At 21 days transepithelial electric resistance (or TEER) was measured using a Millicell voltohmeter from the apical to basolateral chamber (FIG. 1). These measurements indicate integrity of cell layer ensuring the cells are polarised and an intact barrier is ready for experimentation. […] Treatments were removed, replaced with HBSS, and incubated overnight. • After 16-18 hours cells (on apical side) were washed with PBS before trypsin was applied to remove cells from transwell membranes. • Cells were collected by centrifuging for 5 minutes. • Abcam ferritin assay was conducted according to manufacturer's instructions.
Results from the ferritin assay were analysed for significant differences using unpaired t tests. Differences were deemed significant when P<0.05. All statistical analyses were performed using GraphPad Prism 5 software.
All samples treatments were performed in the presence of 80 μM ascorbic acid.

[2] = Iron binding by fluorescence emission scan; details: 1 mg/mL protein, 0-32 mM iron chloride, excitation 498 nm
Protocol: Phycoerythrin extract from Example 1 (extraction included ultrasound treatment) was dissolved at a concentration of 2 mg/mL in 20 mM sodium phosphate buffer, pH 7 containing 0.02% sodium azide. Iron (II) chloride was dissolved in the same buffer at an initial concentration of 100 mM. The dissolved phycoerythrin extract was mixed 1:1 with a concentration series of iron chloride to give a final protein concentration of 1 mg/mL and final iron chloride concentrations of 0, 0.25, 0.5, 1, 2, 4, 8, 16 and 32 mM.
A fluorescence emission scan from 515-700 nm using an excitation wavelength of 498 nm was then performed on all samples using a Thermofisher Varioskan Flash (Instrument version 4.00.52). R-phycoerythrin has an emission maximum of 575 nm and therefore if iron binding occurs with the linear tetrapyrrole moiety of the protein, a change in fluorescence will be observed.

[3] = Heating of phycoerythrin extracts, colour change visualised; assay type: physicochemical
Protocol: First, the crude, homogenised phycoerythrin, before clarification, was heated at 95° C. for 5 min and the colour change visualised.
(§1) Therefore, to gain a precise measurement of the thermal denaturation temperature of phycoerythrin, differential scanning fluorometry (DSF) was undertaken by heating 100 uL of clarified phycoerythrin from 25-95° C. by increasing the temperature by 0.5° C./10 sec.
Thermal denaturation of each Phycoerythrin sample (a)-(d) was undertaken. The results are depicted in FIG. 4.

[4] = Differential scanning fluorometry (DSF) thermal denaturation of clarified phycoerythrin; assay type: physicochemical; details: heated 25-95° C. at 0.5° C./10 sec
Protocol: as §1

[5] = 25 μM Fe solutions, with 4 mg/mL phycoerythrin, 80 μM ascorbic acid
[6] = 25 μM Fe solutions, with 8 mg/mL phycoerythrin, 80 μM ascorbic acid
[7] = 25 μM Fe solutions, without phycoerythrin, 80 μM ascorbic acid
[8] = 25 μM iron, co-treatment with 4 or 8 mg/mL phycoerythrin
[9] = 50 μM Fe solutions, with 4 mg/mL phycoerythrin, 80 μM ascorbic acid
[10] = 50 μM Fe solutions, with 8 mg/mL phycoerythrin, 80 μM ascorbic acid
[11] = 50 μM Fe solutions, without phycoerythrin, 80 μM ascorbic acid

[Cl][Fe][Cl] [Fe (II) chloride, Iron (II) chloride]
Ferritin [1, 5]: 15.8 ± 1.7 ng/mL
Ferritin [1, 6]: 13.9 ± 1.8 ng/mL
Ferritin [1, 7]: 4.4 ± 1.0 ng/mL
Ferritin production compared to cells only treated with the iron solution [1, 8]: significantly improved ferritin production
Ferritin [1, 9]: 10.1 ± 3.5 ng/mL
Ferritin [1, 10]: 16.0 ± 5.9 ng/mL
Ferritin [1, 11]: 5.2 ± 1.6 ng/mL

[Cl][Fe]([Cl])[Cl] [Fe (III) chloride, Iron (III) chloride]
Ferritin [1, 5]: 12.7 ± 0.9 ng/mL
Ferritin [1, 6]: 12.7 ± 1.1 ng/mL
Ferritin [1, 7]: 3.3 ± 0.5 ng/mL
Ferritin production compared to cells only treated with the iron solution [1, 8]: significantly improved ferritin production
Ferritin [1, 9]: 13.0 ± 3.1 ng/mL
Ferritin [1, 10]: 1.8 ± 0.6 ng/mL
Ferritin [1, 11]: 1.7 ± 0.8 ng/mL
Ferritin production compared to cells only treated with the iron solution ([1]; 50 μM iron, co-treatment with 4 mg/mL phycoerythrin): significantly improved ferritin production

phycoerythrin
Change of fluorescence emission with iron [2]: decrease in phycoerythrin fluorescence with increasing iron concentration
Colour change upon heating ([3]; 60° C. and 70° C. for 1 hour): no colour change
Colour change upon heating ([3]; crude, homogenised, before clarification, 95° C. for 5 min): turned from red to brown
Ferritin ([1]; No Fe, 4 mg/mL phycoerythrin (section of 25 μM Fe solutions)): 12.2 ± 0.3 ng/mL
Ferritin ([1]; No Fe, 8 mg/mL phycoerythrin (section of 25 μM Fe solutions)): 7.5 ± 1.6^ ng/mL
Ferritin ([1]; No Fe, 8 mg/mL phycoerythrin (section of 50 μM Fe solutions)): 2.5 ± 0.4 ng/mL
Ferritin production compared to treatment with iron solutions ([1]; only 4 mg/mL phycoerythrin, no added iron): significantly increased ferritin production
Ferritin production compared to treatment with ferric chloride ([1]; only 8 mg/mL phycoerythrin, no added iron): significantly increased ferritin
Thermal denaturation temperature where phycoerythrin loses its fluorescence [4]: 77 °C
